These results are taken from patent US20260355199A1, “COMPOSITIONS AND METHODS FOR TREATING OR PREVENTING NONALCOHOLIC STEATOHEPATITIS (NASH), ANOREXIA, DEPRESSION, ENDOMETRIOSIS, AND OTHER DISEASES OR DISORDERS” (priority 2022, published 2026).

One data set deals with let-7a. Nature of the data set: let-7a miRNA in endometriosis, NASH liver and lung tumor tissues. The data set is classed as in vivo, mouse. The conditions noted are these: lung cancer tissues. Here is the method: For let-7a qPCR, 10 ng of total RNA was reverse transcribed to cDNA in a reaction volume of 10 μl using miRCURY LNA RT Kit (QIAGEN, 339340). Quantitative real-time PCR reactions were carried out using miRCURY LNA SYBR Green PCR Kit (QIAGEN, 339346) and a let-7a-specific primer (Has-Let-7a-5p miRCURY LNA miRNA PCR Assay, QIAGEN, 339306/YP00205727) in a Bio-Rad iCycler. Gene expression levels were normalized against U6 (U6 snRNA v2 miRURY LNA miRNA PCR Assay, QIAGEN, 339306/YPO2119464, QIAGEN).

Data set [1] can be described thus: Energy expenditure and feeding of mice given Bobcat339. The data set is classed as in vivo, mouse.
A further data set relates to Tet3 and Agrp. Nature of the data set: Tet3 and Agrp expression in leptin-treated GT1-7 cells. Format: cell-based, mouse. Here is the method:
Mouse GT1-7 hypothalamic neuronal cell line (Sigma-Aldrich, SCC116), human SH-SY5Y neuronal blastoma cell line (ATCC, CRL-2266), and embryonic mouse hypothalamus cell line N11 (mHypoE-N11) (Cedarlane, CLU107) were purchased and cultured according to the manufacturers' instructions. For siRNA transfection in a 24-well plate scale, cells were seeded at a density of 2×10^5 cells/well the day before transfection. To prepare siRNA transfection solution for each well of cells, 5 pmol of NT siRNA (non-targeting control siRNA, AM4636, Ambion), Tet3 siRNA (siRNA specifically targeting mouse Tet3, 4390815/s101483, Ambion), or TET3 siRNA (siRNA specifically targeting human TET3, 4392420/s47238, Ambion) (Cao et al., 2019, Oncogene, 38:5356-5366; Xu et al., 2020, Cell Rep., 30:1310-1318) were mixed with 25 μl of OPTI-MEM (Gibco, 31985-070) by gentle pipetting (Cao, T. et al., 2019, Oncogene, 38:5356-5366; Xu, Y. et al., 2020, Cell Reports, 30:1310-1318 e5). In parallel, 1.5 μl of Lipofectamine RNAiMAX (Invitrogen, 13778-150) was mixed with 25 μl of OPTI-MEM by gentle pipetting. Following 5 min of incubation at room temperature, the resulting 50 μl of transfection solution was added to one well of cells containing 1 ml culture media. […]

Entries after “also recorded” stand apart in the source; their conditions may differ.

Consider `Nc1nc(=O)n(-c2cccc(-c3ccccc3)c2)cc1Cl` [Bobcat339, 4-Amino-1-[1,1′-biphenyl]-3-yl-5-chloro-2(1H)-pyrimidinone], for which the “let-7a miRNA levels in disease tissues” value in the data set with let-7a is recorded as “increased”. Besides, in data set [1] (drinking water or i.p.), the feeding entry was “induced hyperphagia”, the liver toxicity entry is listed as “without showing evidence of liver toxicity” and the resting energy expenditure entry is on record as “decreases resting energy expenditure”. For the same compound, in data set [1] (oral and intraperitoneal), the “appetite stimulation by route” value is “able to stimulate appetite via multiple routes of administration”.
For “leptin: adipose hormone; mouse leptin L3772-1MG or human leptin L4146-1MG, Sigma Aldrich”, the Tet3 expression entry in the data set with Tet3 and Agrp (leptin 1×10^−8 M vs. 1×10^−10 M) is recorded as “a positive effect on Tet3 expression; also recorded: upregulated TET3”. In addition, the “Agrp expression in response to increased leptin” value in the data set with Tet3 and Agrp (with TET3 knockdown) was “no longer decreased in response to increased leptin”.
